This note sets out measurements from ChEMBL document CHEMBL3621091, “Optimisation of a triazolopyridine based histone demethylase inhibitor yields a potent and selective KDM2A (FBXL11) inhibitor” (Medchemcomm, 2014).

Holding throughout (format): physicochemical
What all share (settings): read-out: Peff

Series [1] can be described thus: Membrane permeability of the compound at pH 6.2 by PAMPA. A general note: PAMPA measures passive passage across an artificial lipid membrane.
Series [2] is described as follows: Membrane permeability of the compound at pH 7.4 by PAMPA.
A short description of series [3]: Membrane permeability of the compound at pH 5 by PAMPA.

Consider `COC(=O)c1ccnc(-c2cn([C@@H]3CCCN(C(=O)c4ccccc4)C3)nn2)c1`, for which the Papp in series [1] was 45 ×10⁻⁶ cm/s; in series [2], 52 ×10⁻⁶ cm/s; in series [3], 56 ×10⁻⁶ cm/s.
The like results for `O=C(O)c1ccnc(-c2cn([C@@H]3CCCN(C(=O)c4ccccc4)C3)nn2)c1` were, in that order, 0.41 ×10⁻⁶ cm/s, 0.69 ×10⁻⁶ cm/s and 1.9 ×10⁻⁶ cm/s.
